Measured values taken from patent publication US5264433A, “Benzodiazepine derivatives” (Fujisawa Pharmaceutical Co., Ltd., priority 1988, dated 1993).

Assays:
[1] = test system: CCK receptor; assay: CCK receptor antagonism in isolated fundic circular muscle from guinea pig stomach; conditions: test compound 1×10^-5 M added 5 minutes before CCK-8 (3.2×10^-7 M); isolated circular muscle strip
Description: CCK receptor antagonism in isolated fundic circular muscle from guinea pig stomach
The strip of circular muscle suspended in 25 ml organ bath containing Kreb's bicarbonate solution (NaCl 118 mM, KCl 4.8 mM, KH2 PO4 1.2 mM, MgSO4 1.2 mM, CaCl2 2.5 mM, NaHCO3 25 mM, glucose 11 mM and bovine serum albumin 0.1%) maintained at 37° C. and gassed with 95% O2 and 5% CO2.
The strip was placed under an initial tension of 0.5 g and equilibrated for 60 minutes during which the bath volume was replaced every 15 minutes. Isometric contraction was measured using a force transducer. CCK-8 (3.2×10^-7 M) was added to the bathing solution and the contractile force was measured. After washing out CCK-8, test compound A (1×10^-5 M) was added. 5 minutes later, CCK-8 was added and the contractile force was measured. CCK antagonism was calculated by comparing the contractile force induced by CCK in the absence or presence of test compound A.

[2] = test system: CCK-A receptor; assay: CCK-A receptor antagonist selectivity (statement only, no method); conditions: statement in words, no data

Which “Inhibition (%) of CCK-induced contractile force” value [1] does the source give for `O=C(NC1N=C(c2ccccc2)c2ccccc2N(CCO)C1=O)c1cc2ccccc2[nH]1` (racemic) [test compound A, (3RS)-1,3-Dihydro-1-(2-hydroxyethyl)-3-(2-indolylcarbonylamino)-5-phenyl-2H-1,4-benzodiazepine-2-one] here?
The value was 91%.

How did the “CCK-A receptor antagonist selectivity” value [2] turn out when `O=C(N[C@H]1N=C(c2ccccc2)c2ccccc2N(Cc2nnn[nH]2)C1=O)c1cc2ccccc2[nH]1` [Example 42, (3S)-1,3-dihydro-3-(2-indolylcarbonylamino)-5-phenyl-1-[(1 H-tetrazol-5-yl)-methyl]-2H-1,4-benzodiazepin-2-one] was run?
Its value is “selective CCK-A receptor antagonist”.
